Experimental data: ChEMBL document CHEMBL4513139, “CO-ADD screening of University of Strathclyde (UK) compounds”
Where “and” joins values, the source holds several entries; their conditions need not be identical. Equal values may be shown once.

How the values were obtained:
Klebsiella pneumoniae = assay: microbe, parasite or virus in culture; settings: ATCC 700603, 18 h, ASSAY_TEST Inhibition of Bacterial Growth, detection method Absorption (OD600), MEDIA CAMHB, plate type 384well, NBS, CORNING #3640
Description: Antibacterial activity against Klebsiella pneumoniae MDR ATCC 70063 (CO-ADD:GN_003); MIC in CAMBH media using NBS plates, by OD(600)

Escherichia coli = assay: microbe, parasite or virus in culture; settings: ATCC 25922, 18 h, ASSAY_TEST Inhibition of Bacterial Growth, detection method Absorption (OD600), MEDIA CAMHB, plate type 384well, NBS, CORNING #3640
Description: Antibacterial activity against Escherichia coli ATCC 25922 (CO-ADD:GN_001); MIC in CAMBH media using NBS plates, by OD(600)

Acinetobacter baumannii = assay: microbe, parasite or virus in culture; settings: ATCC 19606, 18 h, ASSAY_TEST Inhibition of Bacterial Growth, detection method Absorption (OD600), MEDIA CAMHB, plate type 384well, NBS, CORNING #3640
Description: Antibacterial activity against Acinetobacter baumannii ATCC 19606 (CO-ADD:GN_034); MIC in CAMBH media using NBS plates, by OD600

Candida albicans [1] = assay: microbe, parasite or virus in culture; settings: ATCC 90028, ASSAY_TEST Inhibition of Fungal Growth, detection method Absorption (OD530), plate type 384well, NBS, CORNING #3640
Description: (§1) Antifungal activity against Candida albicans ATCC 90028 (CO-ADD:FG_001); MIC in YNB media using NBS plates, by OD630

Candida albicans [2] = settings: ASSAY_TEST Inhibition of Fungal Growth; detection method Absorption (OD530); plate type 384well; NBS; CORNING #3640
Description: as §1

Pseudomonas aeruginosa = assay: microbe, parasite or virus in culture; settings: ATCC 27853, 18 h, ASSAY_TEST Inhibition of Bacterial Growth, detection method Absorption (OD600), MEDIA CAMHB, plate type 384well, NBS, CORNING #3640
Description: Antibacterial activity against Pseudomonas aeruginosa ATCC 27853 (CO-ADD:GN_042); MIC in CAMBH media using NBS plates, by OD(600)

Staphylococcus aureus [3] = assay: microbe, parasite or virus in culture; settings: ATCC 43300, 18 h, ASSAY_TEST Inhibition of Bacterial Growth, detection method Absorption (OD600), MEDIA CAMHB, plate type 384well, NBS, CORNING #3640
Description: (§2) Antibacterial activity against Staphylococcus aureus MRSA ATCC 43300 (CO-ADD:GP_020); MIC in CAMBH media, using NBS plates, by OD(600)

HEK293 = assay: cells; assay type: functional, Homo sapiens, ATCC CRL1573; settings: ASSAY_TEST Inhibition of Cell Viability, detection method Resazurin, Fluorescence (ex560/em590), MEDIA DMEM with 10% FBS, plate type 384well, TC, CORNING #3712, time 18 hr
Staphylococcus aureus [4] = settings: ASSAY_TEST Inhibition of Bacterial Growth, detection method Absorption (OD600), MEDIA CAMHB, plate type 384well, NBS, CORNING #3640, time 18 hr
Description: as §2

[5] = Homo sapiens, ATCC CRL1573, HEK293, read-out: CC50

Description for Cryptococcus neoformans: Antifungal activity against Cryptococcus neoformans H99 ATCC 208821 (CO-ADD:FG_002); MIC in YNB media using NBS plates, by Resazurin OD(600-570)

Structure (SMILES) | MIC (Klebsiella pneumoniae) | MIC (Escherichia coli) | MIC (Acinetobacter baumannii) | MIC (Candida albicans [1]) | MIC (Candida albicans [2]) | MIC (Pseudomonas aeruginosa) | MIC (Staphylococcus aureus [3]) | MIC (Cryptococcus neoformans) | MIC (Staphylococcus aureus [4]) [µg/mL] | CC50 (HEK293) | CC50 (HEK293; [5]) [µg/mL]
COc1cccc(/C=C/c2ccc(C(=O)Nc3cc(C(=O)Nc4cc(C(=O)NCCC(=N)N)n(C)c4)n(C)c3)cc2)c1.O=C(O)C(F)(F)F | > 32 µg/mL | > 32 µg/mL | > 32 µg/mL | > 32 µg/mL | 16 µg/mL and 32 µg/mL | > 32 µg/mL | 8 µg/mL | – | 4 | 10.1 µg/mL and 10.7 µg/mL | 15.8
Cn1cc(NC(=O)c2cc(NC(=O)c3ccccc3)cn2C)cc1C(=O)NCCC(=N)N.O=C(O)C(F)(F)F | > 32 µg/mL | > 32 µg/mL | > 32 µg/mL | > 32 µg/mL | – | > 32 µg/mL | > 32 µg/mL | > 32 µg/mL | – | – | 7.43
COc1cccc(/C=C/c2ccc(C(=O)Nc3cc(C(=O)Nc4cc(C(=O)NCCN5CCCCC5)n(CCCc5ccccc5)c4)n(C)c3)cc2)c1.O=C(O)C(F)(F)F | > 32 µg/mL | > 32 µg/mL | > 32 µg/mL | > 32 µg/mL | – | > 32 µg/mL | > 32 µg/mL | > 32 µg/mL | – | – | 16
CC(C)CCc1sc(NC(=O)c2cc(NC(=O)c3cc(NC(=N)c4ccccc4)cn3C)cn2C)nc1C(=O)NCCCN(C)C.O=C(O)C(F)(F)F.O=C(O)C(F)(F)F | > 32 µg/mL | > 32 µg/mL | > 32 µg/mL | > 32 µg/mL | – | > 32 µg/mL | > 32 µg/mL | 4 µg/mL | – | – | > 32
COc1ccc(/C=C/c2ccc(C(=O)Nc3cc(C(=O)Nc4nc(C(=O)NCCN5CCOCC5)c(C5CCCCC5)s4)n(C)c3)cn2)cc1.O=C(O)C(F)(F)F.O=C(O)C(F)(F)F | > 32 µM | > 32 µM | > 32 µM | > 32 µM | – | > 32 µM | > 32 µM | > 32 µM | – | – | 4.56

Continued, in another order:

MIC (Klebsiella pneumoniae) | MIC (Escherichia coli) | MIC (Acinetobacter baumannii) | MIC (Candida albicans [1]) | MIC (Candida albicans [2]) | MIC (Pseudomonas aeruginosa) | MIC (Staphylococcus aureus [3]) | MIC (Cryptococcus neoformans) | MIC (Staphylococcus aureus [4]) [µg/mL] | Structure (SMILES) | CC50 (HEK293) | CC50 (HEK293; [5]) [µg/mL]
> 32 µg/mL | > 32 µg/mL | > 32 µg/mL | 32 µg/mL | 32 µg/mL and >32 µg/mL | > 32 µg/mL | 0.5 µg/mL | 16 µg/mL | 1 | CN(C)CCNC(=O)c1cc(NC(=O)c2cc(NC(=O)c3ccc(/C=C/c4cnc5ccccc5c4)cc3)cn2C)cn1C.O=C(O)C(F)(F)F.O=C(O)C(F)(F)F | 4.83 µg/mL and 2.72 µg/mL and 6.4 µg/mL | –
> 32 µg/mL | > 32 µg/mL | > 32 µg/mL | 16 µg/mL | – | > 32 µg/mL | > 32 µg/mL | > 32 µg/mL | – | Cn1cc(NC(=O)c2cc(NC(=O)c3ccc(/C=C/c4ccc5ccccc5c4)cc3)cn2C)cc1C(=O)NCCN1CCOCC1.O=C(O)C(F)(F)F | – | > 32
> 32 µg/mL | > 32 µg/mL | > 32 µg/mL | 4 µg/mL | – | > 32 µg/mL | > 32 µg/mL | 8 µg/mL | – | CSc1ccc(/C=C/c2ccc3cc(C(=O)Nc4cc(C(=O)Nc5cc(C(=O)NCCN6CCOCC6)n(C)c5)n(C)c4)ccc3n2)cc1.O=C(O)C(F)(F)F | – | > 32
> 32 µg/mL | > 32 µg/mL | > 32 µg/mL | > 32 µg/mL | – | > 32 µg/mL | > 32 µg/mL | > 32 µg/mL | – | Cn1cc(NC(=O)c2ccc(/C=C/c3cnc4ccccc4c3)cc2)cc1C(=O)Nc1nc(C(=O)NCCN2CCOCC2)c(CCc2ccccc2)s1.O=C(O)C(F)(F)F.O=C(O)C(F)(F)F | – | > 32
> 32 µg/mL | > 32 µg/mL | > 32 µg/mL | > 32 µg/mL | – | > 32 µg/mL | > 32 µg/mL | > 32 µg/mL | – | Cn1cc(NC(=O)c2ccc(/C=C/c3ccncc3)cc2)cc1C(=O)Nc1cc(C(=O)NCCN2CCOCC2)n(CCCSc2ccccc2)c1.O=C(O)C(F)(F)F.O=C(O)C(F)(F)F | – | > 32
> 32 µg/mL | > 32 µg/mL | > 32 µg/mL | > 32 µg/mL | – | > 32 µg/mL | > 32 µg/mL | 16 µg/mL | – | Cn1cc(NC(=O)c2ccc(/C=C/c3cnc4ccccc4c3)cc2)cc1C(=O)Nc1cc(C(=O)NCCN2CCOCC2)n(CCCc2cn(CCc3ccccc3)nn2)c1.O=C(O)C(F)(F)F | – | > 32
> 32 µg/mL | > 32 µg/mL | > 32 µg/mL | 32 µg/mL | – | > 32 µg/mL | 1 µg/mL | 16 µg/mL | – | CC(C)n1cc(NC(=O)c2cc(NC(=O)c3ccc(/C=C/c4cnc5ccccc5c4)cc3)cn2C)cc1C(=O)NCCN1CCOCC1.O=C(O)C(F)(F)F.O=C(O)C(F)(F)F | – | 2.81
